Reference: article PMC9504178 (Viruses, 2022)

Experiments:
[1] = test system: NL09 or NL11; type: cell-based, influenza A virus
[2] = test system: NL09 and NL11 strains; type: cell-based, influenza A virus

Row | SMILES | reduction of viral titers in hPCLSs [1] | viral reduction in A549 cells [2] | viral reduction in hPCLSs [1]
1 | CN(C)C/C=C/C(=O)Nc1cc2c(Nc3ccc(F)c(Cl)c3)ncnc2cc1O[C@H]1CCOC1 [AF, afatinib] | more than 1000 fold |  | 
2 | Cn1cc(-c2cc3c(N4CCN(c5ncc([C@@](C)(N)c6ccc(F)cc6)cn5)CC4)ncnn3c2)cn1 [AV, avapritinib] | ~ 10 fold |  | 
3 | CNC(=O)c1cc(Oc2ccc(NC(=O)Nc3ccc(Cl)c(C(F)(F)F)c3)c(F)c2)ccn1 [RG, regorafenib] | more than 1000 fold | ~ 2 log10 | ~ 4 log10
